Columns and labels:
human PDE5 = target: T1, human PDE5 (Homo sapiens, UniProt O76074); assay: Inhibition of PDE5 activity (platelet lysate, SPA assay); format: biochemical; details: 0.5 μM cGMP, read-out: PDE5 Inhibitory values measured as -logIC50 (converted)
T1 construct: from tissue; host or cells: human platelets from fresh donor blood (platelet lysate)
Procedure: Method for Measuring Inhibition of PDE5 Activity
As a source for human PDE5, platelets were used. For that purpose, 150 ml fresh blood from human donors anticoagulated with citrate [final concentration 0.3% (w/v)] was centrifuged at 200 g for 10 min to obtain the so-called platelet-rich-plasma (PRP) as a supernatant. […] After centrifugation (1,400 g, 10 min) the cell pellet was resuspended in 3 ml homogenization buffer (NaCl 140 mM, KCl 3.8 mM, EGTA (ethylene glycol tetraacetic acid) 1 mM, MgCl2 1 mM, Tris-HCl 20 mM, beta-mercaptoethanol 1 mM, pH 8.2) plus protease-inhibitor mix resulting in final concentrations of 0.5 mM Pefablock (Roche), 10 μM Leupeptin, 5 μM Trypsine inhibitor, 2 mM Benzamidin and 10 μM Pepstatin A. The suspension was sonicated and thereafter centrifuged for 15 min at 10,000 g. The resulting supernatant (platelet lysate) was used for enzymatic assays.
PDE5 activities were measured in a 96-well platform using SPA (scintillation proximity assay) yttrium silicate beads (RPNQ1050 from GE Healthcare). In a first step the PDE activity operated hydrolysis of either [^3H] cGMP (substrate) into [^3H] 5′GMP. In a second step substrate and product were distinguished following addition of SPA yttrium silicate beads. Indeed, in the presence of zinc sulphate the linear [^3H] […] Close proximity of bound [^3H] […] The test volume was 100 μl and contained 20 mM Tris buffer (pH 7.4), 0.1 mg of BSA (bovine serum albumin)/ml, 5 mM Mg^2+, 1 μM motapizone (PDE3 Inhibitor), 10 nM PDE2 inhibitor 2-(3,4-dimethoxybenzyl)-7-[(1R,2R)-2-hydroxy-1-(2-phenylethyl)propyl]-5-methylimidazo[5,1-f][1,2,4]triazin-4(3H)-one, 0.5 μM cGMP (cyclic guanosine monophosphate) (including about 50,000 cpm of [3H]cGMP as a tracer) (substrate), 1 μl of the respective compound dilution in dimethylsulfoxide (DMSO) and sufficient PDE5-containing platelet lysat (10,000×g supernatant, see above) to ensure that 10-20% of the cGMP was converted under the said experimental conditions. […] After a preincubation of 5 min at 37° C., the reaction was commenced by adding the substrate (cGMP) and the assay was incubated for a further 15 min. The reaction was terminated by adding SPA beads (50 μl). In agreement with the manufacturer's instructions, the SPA beads had previously been resuspended in water, but were then diluted 1:3 (v/v) in water. This diluted solution also contained 3 mM 8-methoxymethyl-3-isobutyl-1-methylxanthine (IBMX) to ensure a complete block of PDE activity. Once the beads were sedimented (>30 min), the MTP's were analyzed in commercially available luminescence detection devices. The corresponding IC50 values of the compounds for inhibition of PDE activity were determined from the concentration-effect curves by means of non-linear regression.
(§1) The numbers of the compounds correspond to the numbers of the examples.

PDE4B1 = target: T2, PDE4B1 (Homo sapiens, UniProt Q07343); assay: Inhibition of PDE4 activity (PDE4B1, SPA assay); format: biochemical; details: recombinant PDE4B1, 0.5 μM cAMP; read-out: PDE4B1 Inhibitory values measured as -logIC50 (converted)
T2 construct: made in house; host or cells: SF21 insect cells (baculovirus; virus made in SF9 cells, pCR-Bac vector)
Procedure: Method for Measuring Inhibition of PDE4 Activity
The PDE4B1 (GB no. L20966) was a gift of Prof. M. Conti (Stanford University, USA). It was amplified from the original plasmid (pCMV5) via PCR with primers Rb18 (5′-[…]-3′) and Rb10 (5′-[…]-3′) and cloned into the pCR-Bac vector (Invitrogen, Groningen, NL).
The recombinant baculovirus was prepared by means of homologous recombination in SF9 insect cells. The expression plasmids were cotransfected with Baculo-Gold DNA (Pharmingen, Hamburg) using a standard protocol (Pharmingen, Hamburg). Wt virus-free recombinant virus supernatants were selected using plaque assay methods. After that, high-titre virus supernatants were prepared by amplifying 3 times. PDE4B1 was expressed in SF21 cells by infecting 2×10^6 cells/ml with an MOI (multiplicity of infection) between 1 and 10 in the serum-free SF900 medium (GIBCO Life Technologies, Karlsruhe, Germany) The cells were cultured at 28° C. for 48-72 hours, after which they were pelleted for 5-10 min at 1000×g and 4° C.
The SF21 insect cells were resuspended, at a concentration of approx. 10^7 cells/ml, in ice-cold (4° C.) homogenization buffer (20 mM Tris, pH 8.2, containing the following additions: 140 mM NaCl, 3.8 mM KCl, 1 mM EGTA, 1 mM MgCl2, 10 mM β-mercaptoethanol, 2 mM benzamidine, 0.4 mM Pefablock, 10 μM leupeptin, 10 μM pepstatin A, 5 μM trypsin inhibitor) and disrupted by ultrasonication. The homogenate was then centrifuged for 10 min at 1000×g and the supernatant was stored at −80° C. until subsequent use (see below). The protein content was determined by the Bradford method (BioRad, Munich) using BSA (Bovine serum albumin) as the standard.
PDE4B1 activities were measured in a 96-well platform using SPA (scintillation proximity assay) yttrium silicate beads (RPNQ1050 from GE Healthcare). In a first step the PDE activity operated hydrolysis of either [^3H] cAMP (substrate) into […]. In a second step substrate and product were distinguished following addition of SPA yttrium silicate beads. […] Close proximity of bound [^3H] […] The test volume was 100 μl and finally contained 20 mM Tris buffer (pH 7.4), 0.1 mg/ml of BSA, 5 mM Mg^2+, 0.5 μM cAMP (including about 50,000 cpm of [3H]cAMP) as substrate, 1 μl of the respective substance dilution in DMSO and sufficient recombinant PDE (1000×g supernatant, see above) to ensure that 10-20% of the cAMP was converted under the said experimental conditions. […] After a preincubation of 5 min at 37° C., the reaction was commenced by adding the substrate (cAMP) and the assays were incubated for a further 15 min. Reactions were terminated by adding SPA beads (50 μl). In agreement with the manufacturer's instructions, the SPA beads had previously been resuspended in water, but were then diluted 1:3 (v/v) in water. This diluted solution further contained 3 mM IBMX (isobutylmethylxanthine) to ensure a complete block of PDE activity. Once the beads were sedimented (>30 min), the MTP's (micro titerplate) were analyzed in commercially available […]. The corresponding IC50 values of the compounds for inhibition of PDE4B1 activity were determined from the concentration-effect curves by means of non-linear regression.
as §1

T2 sequence (Q07343 whole entry): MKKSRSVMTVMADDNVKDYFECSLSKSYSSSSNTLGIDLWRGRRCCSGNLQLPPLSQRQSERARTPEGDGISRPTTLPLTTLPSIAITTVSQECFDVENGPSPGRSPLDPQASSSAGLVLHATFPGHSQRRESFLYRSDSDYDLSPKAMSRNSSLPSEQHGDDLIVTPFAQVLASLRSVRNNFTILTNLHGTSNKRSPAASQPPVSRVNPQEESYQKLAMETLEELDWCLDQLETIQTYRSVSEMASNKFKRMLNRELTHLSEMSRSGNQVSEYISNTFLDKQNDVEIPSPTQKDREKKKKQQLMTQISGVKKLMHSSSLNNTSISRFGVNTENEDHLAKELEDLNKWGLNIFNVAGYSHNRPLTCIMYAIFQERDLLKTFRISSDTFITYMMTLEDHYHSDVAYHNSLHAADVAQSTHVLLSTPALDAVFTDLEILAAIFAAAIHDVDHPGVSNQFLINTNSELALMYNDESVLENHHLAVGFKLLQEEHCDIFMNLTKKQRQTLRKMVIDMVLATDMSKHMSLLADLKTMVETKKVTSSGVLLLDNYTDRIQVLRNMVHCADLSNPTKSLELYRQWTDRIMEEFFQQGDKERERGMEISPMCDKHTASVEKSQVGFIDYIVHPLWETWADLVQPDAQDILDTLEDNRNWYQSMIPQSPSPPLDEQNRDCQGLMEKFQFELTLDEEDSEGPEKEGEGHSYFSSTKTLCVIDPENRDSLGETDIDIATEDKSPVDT

Row | IC50 (human PDE5) | IC50 (PDE4B1) | SMILES
1 | < 1 nM | < 1 nM | COc1ccc(C2=NN(C3CCN(C(=O)[C@@H](Cc4ccncc4)NC(=O)c4c[nH]c5c(-c6c(OCC7CC7)ccc7c6OCO7)ncnc45)CC3)C(=O)[C@@H]3CCCC[C@H]23)cc1OC [Example 109, 4-[5-(cyclopropylmethoxy)-1,3-benzodioxol-4-yl]-N-[(2R)-1-{4-[(4aS,8aR)-4-(3,4-dimethoxyphenyl)-1-oxo-4a,5,6,7,8,8a-hexahydrophthalazin-2(1H)-yl]piperidin-1-yl}-1-oxo-3-(pyridin-4-yl)propan-2-yl]-5H-pyrrolo[3,2-d]pyrimidine-7-carboxamide]
2 | 1 to 10 nM | 1 to 10 nM | COc1ccc(C2=NN(C3CCN(C(=O)[C@@H](Cc4ccccc4)NC(=O)c4c[nH]c5c(-c6c(OCC7CC7)ccc7c6OCO7)ncnc45)CC3)C(=O)[C@@H]3CCC[C@H]23)cc1OC [Example 55, 4-[5-(cyclopropylmethoxy)-1,3-benzodioxol-4-yl]-N-[(2R)-1-{4-[(4aS,7aR)-4-(3,4-dimethoxyphenyl)-1-oxo-1,4a,5,6,7,7a-hexahydro-2H-cyclopenta[d]pyridazin-2-yl]piperidin-1-yl}-1-oxo-3-phenylpropan-2-yl]-5H-pyrrolo[3,2-d]pyrimidine-7-carboxamide]
3 | 1 to 10 nM | < 1 nM | COc1ccc(C2=NN(C3CCN(C(=O)[C@H](Cc4cccs4)NC(=O)c4c[nH]c5c(-c6c(OCC7CC7)ccc7c6OCO7)ncnc45)CC3)C(=O)[C@@H]3CCCC[C@H]23)cc1OC [Example 75, 4-[5-(cyclopropylmethoxy)-1,3-benzodioxol-4-yl]-N-[(2S)-1-{4-[(4aS,8aR)-4-(3,4-dimethoxyphenyl)-1-oxo-4a,5,6,7,8,8a-hexahydrophthalazin-2(1H)-yl]piperidin-1-yl}-1-oxo-3-(thiophen-2-yl)propan-2-yl]-5H-pyrrolo[3,2-d]pyrimidine-7-carboxamide]
4 | < 1 nM | < 1 nM | COc1ccc(C2=NN(C3CCN(C(=O)[C@@H](Cc4cscn4)NC(=O)c4c[nH]c5c(-c6c(OCC7CC7)ccc7c6OCO7)ncnc45)CC3)C(=O)[C@@H]3CCCC[C@H]23)cc1OC [Example 85, 4-[5-(cyclopropylmethoxy)-1,3-benzodioxol-4-yl]-N-[(2R)-1-{4-[(4aS,8aR)-4-(3,4-dimethoxyphenyl)-1-oxo-4a,5,6,7,8,8a-hexahydrophthalazin-2(1H)-yl]piperidin-1-yl}-1-oxo-3-(1,3-thiazol-4-yl)propan-2-yl]-5H-pyrrolo[3,2-d]pyrimidine-7-carboxamide]
5 | < 1 nM | < 1 nM | CCOc1ccc(C[C@@H](NC(=O)c2c[nH]c3c(-c4c(OCC5CC5)ccc5c4OCO5)ncnc23)C(=O)N2CCC(N3N=C(c4ccc(OC)c(OC)c4)[C@H]4CCCC[C@H]4C3=O)CC2)cc1 [Example 9, 4-[5-(cyclopropylmethoxy)-1,3-benzodioxol-4-yl]-N-[(2R)-1-{4-[(4aS,8aR)-4-(3,4-dimethoxyphenyl)-1-oxo-4a,5,6,7,8,8a-hexahydrophthalazin-2(1H)-yl]piperidin-1-yl}-3-(4-ethoxyphenyl)-1-oxopropan-2-yl]-5H-pyrrolo[3,2-d]pyrimidine-7-carboxamide]
6 | < 1 nM | < 1 nM | COc1ccc(C2=NN(C3CCN(C(=O)[C@H](NC(=O)c4c[nH]c5c(-c6c(OCC7CC7)ccc7c6OCO7)ncnc45)C(C)C)CC3)C(=O)[C@@H]3CCCC[C@H]23)cc1OC [Example 119, 4-[5-(cyclopropylmethoxy)-1,3-benzodioxol-4-yl]-N-[(2R)-1-{4-[(4aS,8aR)-4-(3,4-dimethoxyphenyl)-1-oxo-4a,5,6,7,8,8a-hexahydrophthalazin-2(1H)-yl]piperidin-1-yl}-3-methyl-1-oxobutan-2-yl]-5H-pyrrolo[3,2-d]pyrimidine-7-carboxamide]
7 | < 1 nM | < 1 nM | COc1ccc(C2=NN(C3CCN(C(=O)[C@@H](CCSC)NC(=O)c4c[nH]c5c(-c6c(OCC7CC7)ccc7c6OCO7)ncnc45)CC3)C(=O)[C@@H]3CCCC[C@H]23)cc1OC [Example 98, 4-[5-(cyclopropylmethoxy)-1,3-benzodioxol-4-yl]-N-[(2R)-1-{4-[(4aS,8aR)-4-(3,4-dimethoxyphenyl)-1-oxo-4a,5,6,7,8,8a-hexahydrophthalazin-2(1H)-yl]piperidin-1-yl}-4-(methylsulfanyl)-1-oxobutan-2-yl]-5H-pyrrolo[3,2-d]pyrimidine-7-carboxamide]
8 | < 1 nM | < 1 nM | COc1ccc(C2=NN(C3CCN(C(=O)[C@@H](Cc4c[nH]cn4)NC(=O)c4c[nH]c5c(-c6c(OCC7CC7)ccc7c6OCO7)ncnc45)CC3)C(=O)[C@@H]3CCCC[C@H]23)cc1OC [Example 89, 4-[5-(cyclopropylmethoxy)-1,3-benzodioxol-4-yl]-N-[(2R)-1-{4-[(4aS,8aR)-4-(3,4-dimethoxyphenyl)-1-oxo-4a,5,6,7,8,8a-hexahydrophthalazin-2(1H)-yl]piperidin-1-yl}-3-(1H-imidazol-4-yl)-1-oxopropan-2-yl]-5H-pyrrolo[3,2-d]pyrimidine-7-carboxamide]
9 | < 1 nM | – | COc1ccc(C2=NN(C3CCN(C(=O)[C@H](Cc4cscn4)NC(=O)c4c(C)[nH]c5c(-c6c(OCC7CC7)ccc7c6OCO7)ncnc45)CC3)C(=O)[C@@H]3CCCC[C@H]23)cc1OC [Example 87, 4-[5-(cyclopropylmethoxy)-1,3-benzodioxol-4-yl]-N-[(2S)-1-{4-[(4aS,8aR)-4-(3,4-dimethoxyphenyl)-1-oxo-4a,5,6,7,8,8a-hexahydrophthalazin-2(1H)-yl]piperidin-1-yl}-1-oxo-3-(1,3-thiazol-4-yl)propan-2-yl]-6-methyl-5H-pyrrolo[3,2-d]pyrimidine-7-carboxamide]
